The source of these data is US20210301306A1 (priority 2018, published 2021).

The test system of the assay is normally fed mice. The assay is described as follows: Feeding behavior in normally fed mice injected into the stomach wall with vector, then given CNO. It is filed as in vivo. The settings on record: 1 mg/kg CNO, FIGS. 9A-9E. As for the experimental part:
FIG. 3 depicts the response of normally fed […] mice injected into the stomach wall with retroAAV/rh10 expressing a DREADD (hD3q) which activates neurons in response to 1 mg/kg CNO. Animals injected with retroAAV/rh10 expressing the marker gene mCherry fed normally in response to CNO.

Turning to `C[N+]1([O-])CCN(C2=Nc3cc(Cl)ccc3Nc3ccccc32)CC1` [CNO, clozapine-N-oxide], the “long term feeding behavior” value is “long term stability of reduced feeding behavior”.
